Experimental data as given in patent US20060166996A1, “Phthalazine derivatives as phosphodiesterase 4 inhibitors” (Zambon Group S.P.A., priority 2002, published 2006).

Assays:
PDE 3 = PDE 3 (Homo sapiens, UniProt Q14432); assay: PDE 3 enzyme inhibition (SPA); type: biochemical, healthy volunteers; settings: PDE 3 from platelet rich plasma; 3H-cAMP; read-out: PDE 3-5 IC 50 (nM): PDE 3
Procedure: (§1) PDE 3 and PDE 5 enzymes were purified from platelet rich plasma (PRP) obtained from healthy volunteers.
(§2) PDE 3 and PDE 5 enzymes were purified according to Simpson A. W. M. et al. (Biochem. Pharmacol. 1988, 37, 2315-2320) partially modified for the FPLC technique (Fast Protein Liquid Chromatography).
(§3) The PRP was diluted 1:2 in saline solution and centrifuged at 2000×g for 15 minutes at room temperature.
(§4) The pellet was suspended in 10 ml of lysis solution (155 mM NH4Cl, 10 mM KHCO3 and 0.1 mM Na2EDTA pH 7.4) and incubated for 10 minutes on ice-bath to remove erythrocyte contamination.
(§5) After centrifugation, platelets were suspended in 10 ml of 20 mM Bis-Tris, 2 mM EDTA, 5 mM β-mercaptoethanol, 50 mM sodium acetate, 2 mM benzamidine) and homogenised with a Polytron homogeniser on ice-bath.
(§6) The homogenate was centrifuged and the supernatant applied to a UNO Q12 column connected to a Biologic Chromatography system (FPLC, BIO RAD).
(§7) PDE 3 and PDE 5 enzymes were eluted with a linear 0.05-1M sodium acetate gradient and the elution fractions were collected for PDE enzymes activity assay.
(§8) Fractions containing PDE activities were pooled, dialysed overnight against distilled water and concentrated 10 times by an Amicon filtration system (using YM10 membrane filter). Ethylene glycol was added to a final concentration of 30% v/v and the solution stored at −20° C.
(§9) Enzymatic activity was stable for several weeks under these conditions.
(§10) Enzymes activity assay were performed using Scintillation Proximity Assay (SPA) Amersham kit consisting of tracer ^3H-cAMP for PDE3 or ^3H-cGMP for PDE5, PDE assay buffer (10×solution: 500 mM TRIS/HCl pH 7.5, 83 mM MgCl2 and 17 mM EGTA) and Yttrium SPA PDE beads (containing 18 mM zinc sulphate).
(§11) The radioactivity of the beads was measured using a scintillation counter (Packard model MINAXI β TRI-CARB 4000 SERIES).

[1] = Pharmacokinetic study in rats; type: in vivo; settings: for PK rat t/2: 10 mg/kg oral or 3 mg/kg intravenously, mixture of 3-5 compounds; for bioavailability: plasma, rat, oral 10 mg/kg in N-methylglucosamine/PG/Tween 80 (physiologic vehicle), read-out: PK rat % F
Procedure: A mixture containing 3-5 compounds according to what described by Ward K. W. et al. (Drug Metab. Dispos. 2001, vol. 29, 82-88) was administered to rats at 10 mg/kg dosage by oral route (1 mg/ml in 77% N-methylglucosamine 25 mM and 20% PG containing 3% Tween 80) or 3 mg/kg intravenously (3 mg/ml in 15% DMSO/85% PEG).
The animals received only one treatment per study.
The rats permanently implanted with jugular catheter (Silastic®, Dow Corning) were treated with the test mixture by an intravenous bolus (via implanted catheter) or by oral gavage. Blood samples were collected from the jugular catheter at different times up to 6 h after administration.
Plasma samples were analyzed after protein precipitation by two volumes of CH3CN and plasma concentrations were determined by liquid chromatography/mass spectrometry.
Being poor the solubility of the compounds comprised in the general formula of the international patent application WO 00/05218, it was necessary to performe the pharmacokinetic studies using a 15% DMSO/85% PEG solution of the compounds both for intravenous and for oral route, i.e. by an absolutely non physiological vehicle.

PDE 5 = PDE 5 (Homo sapiens, UniProt O76074); assay: PDE 5 enzyme inhibition (SPA); type: biochemical, healthy volunteers; settings: PDE 5 from platelet rich plasma; 3H-cGMP; read-out: PDE 3-5 IC 50 (nM): PDE 5
Procedure: as §1, §2, §3, §4, §5, §6, §7, §8, §9, §10, §11

PDE 4 enzyme = target: T1, PDE 4 enzyme; assay: PDE 4 enzyme inhibition (SPA); type: biochemical; settings: PDE 4 isolated from U937 cell line; SPA with 3H-cAMP
T1 construct: % at 10^−7; other: at 10^−7; PDE 4 from U937 cell line; other: PDE 4 isolated from U937 cell line; SPA with 3H-cAMP
Procedure: a) PDE 4 Enzyme Purification
PDE 4 enzyme was isolated from U937 cell line according to the method of Nielson et al. (J. Allergy Clin. Immunol. 1990, vol. 86, pages 801-807) partially modified for the FPLC technique (Fast Protein Liquid Chromatography).
U-937cell line (Istituto Zooprofilattico Sperimentale, Brescia, Italy) was maintained in RPMI 1640, with 10% foetal calf serum and 2 mM glutamine, at a cell density between 1×10^6 and 8×10^6 cells per ml in an incubator at 37° C. with 5% CO2.
U937 suspension was homogenised in a buffer containing 10 mM TRIS (tri-(hydroxymethyl)-aminomethane), 5 mM MgCl2, 4 mM EGTA (ethyleneglycol-bis-(β-aminoethylether)-N,N,N′N′-tetra-acetic acid), 5 mM […]-mercaptoethanol, 1 μM leupeptin, 1 μM pepstatin, 1% TRITON x-100, and 100 μM phenylmethyl sulfonyl fluoride (PMSF) at pH 7.8.
The homogenate was centrifuged and the supernatant was used for the purification of the PDE 4 enzyme; it was seeded on a column connected to a biologic chromatography system (FPLC, BIO RAD).
PDE 4 enzyme was eluted with a linear gradient, from 0.05 M to 1 M of sodium acetate, and elution fractions were collected for PDE4 activity assay.
The fractions containing PDE4 activity were collected and, after an overnight dialysis against water to remove sodium acetate, were concentrated to 30% volume with an Amicon filtration system (using YM10 membrane filter).
Ethylene glycol (30% v/v) was added and the sample was stored at −20° C. in a single aliquot until the use.
PDE 4 activity assay was performed using Scintillation Proximity Assay (SPA) Amershan kit consisting of tracer ^3H-cAMP, PDE assay buffer (10×solution: 500 mM TRIS/HCl pH 7.5, 83 mM MgCl2 and 17 mM EGTA) and Yttrium SPA PDE beads (containing 18 mM zinc sulphate).
as §11
The IC50 values were calculated from concentration-inhibition curves by non linear regression analysis using the program ORIGIN 3.5 (MICROCAL SOFTWARE INC.) and each fitting was the mean±SEM of 3 experiments using different PDE 4 preparations.

Sequence of PDE 3 (Q14432 674-1093 limits assumed): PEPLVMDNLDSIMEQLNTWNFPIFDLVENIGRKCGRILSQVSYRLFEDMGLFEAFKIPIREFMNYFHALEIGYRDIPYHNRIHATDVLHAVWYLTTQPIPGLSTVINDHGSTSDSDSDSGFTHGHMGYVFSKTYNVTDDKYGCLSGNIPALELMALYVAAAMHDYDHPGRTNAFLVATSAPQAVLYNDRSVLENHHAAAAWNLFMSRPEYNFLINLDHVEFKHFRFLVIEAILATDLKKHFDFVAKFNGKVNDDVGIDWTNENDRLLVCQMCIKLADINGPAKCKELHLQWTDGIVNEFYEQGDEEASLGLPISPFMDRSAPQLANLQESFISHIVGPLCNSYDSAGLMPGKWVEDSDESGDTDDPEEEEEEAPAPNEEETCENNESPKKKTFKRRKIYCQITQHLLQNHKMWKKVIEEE

Row | Structure (SMILES) | IC50 (PDE 3) | PK rat t/2 [1] | bioavailability [1] | IC50 (PDE 5) | IC50 (PDE 4 enzyme)
1 | O=C(O)c1cccc(-c2nnc(Cc3c(Cl)cncc3Cl)c3ccc(OC(F)F)cc23)c1 [Compound 8, 3-[4-(3,5-dichloro-pyridin-4-ylmethyl)-7-difluoromethoxy-phthalazin-1-yl]-benzoic Acid] | > 10000 nM | 66 min | 41% | > 10000 nM | –
2 | COc1ccc2c(Cc3c(Cl)cncc3Cl)nnc(-c3sccc3C(=O)O)c2c1 [Compound 10, 2-[4-(3,5-dichloro-pyridin-4-ylmethyl)-7-methoxy-phthalazin-1-yl]-thiophene-3-carboxylic Acid] | > 10000 nM | 21 min | 7% | > 10000 nM | 0.048 µM
3 | COc1ccc2c(Cc3c(Cl)cncc3Cl)nnc(-c3cccc(C(=O)O)c3)c2c1 [Compound 2, 3-[4-(3,5-dichloro-pyridin-4-ylmethyl)-7-methoxy-phthalazin-1-yl]-benzoic Acid] | > 10000 nM | 132 min | 43% | > 10000 nM | 0.037 µM
